In patent publication EP4741386A1 (Jiangsu Yahong Meditech Co., Ltd., priority 2023, dated 2025):

How the values were obtained:
[1] = tested on: MDA-MB-436; experiment: CTG experiment for cell viability (CellTiter-Glo, 96-well plate, 7 days); assay type: cell-based; conditions: MDA-MB-436 cells, 7 days culture with compound
Procedure: Test Example 2: CTG experiment for cell viability
• 1. Object: to screen USP1 inhibitors by a CTG assay, using a 96-well plate. • 2. Materials: • The cells used were MDA-MB-436 (manufacturer: Nanjing Cobioer Biotechnology Co., Ltd.) and cultured in DMEM medium, • CTG (CellTiter-Glo® Luminescent Cell Viability Assay kit) (Promega, Cat. No.: G7572), • 96-well plate (Corning, Cat. No.: 3610). • 3. Compounds: all compounds were dissolved in 100% DMSO to obtain 50 mM stock solutions. • 4. Experimental method: • ① Plating: The cells to be tested were spread into a 96-well plate at a certain density, with 200 µL per well, and 200 µL of cell medium was added to the blank wells. […] The cell plate with the compounds was placed in an incubator at 37°C, and further cultured for 7 days prior to detection. • ④ Assay: The substrate and the buffer of CTG kit were mixed evenly. The cell plate with the compounds in Step ③ was taken out from the incubator, and left at room temperature to equilibrate for 30 minutes. The medium containing the compounds was removed from the cell plate, 100 µL of PBS and 50 µL of CTG reagent were added to each well, shaken and mixed for 3 minutes, and then incubated for 10 minutes at room temperature. The plate was read by a BIotek microplate-reader, with a parameter set to 567 CPM. • 5. Curve fitting
It was the same as that for the enzyme.

[2] = biological target: T1, Recombinant human His6-USP1/His6-UAF1 complex protein (Homo sapiens, UniProt O94782); experiment: In vitro inhibitory activity against USP1 (Ubiquitin Rhodamine 110 fluorescence detection, 384-well plate); assay type: biochemical; conditions: Ub-Rho substrate, 1 hour pre-incubation, read after 30 minutes
T1 construct: His6; purchased R&D E-568-050
Procedure: Test Example 1: In vitro inhibitory activity against USP1 […]
Experimental object: to screen compounds with inhibitory activity against USP1 […] by a fluorescence detection method, using a 384-well plate.
Experimental materials: Recombinant human His6-USP1/His6-UAF1 complex protein (R&D, Cat. No.: E-568-050), Ubiquitin Rhodamine 110 protein (Ub-Rho) (R&D, Cat. No.: U-555-050), 384-well plate (Perkin Elmer, Cat. No.: 6007279); all compounds were dissolved in 100% DMSO to obtain 50 mM stock solutions.
• 1) Preparation of 1 × assay buffer: 1 × assay buffer (modified Tris buffer) was prepared; • 2) Dilution of compounds: the compounds were transferred to an assay plate via Echo.

[3] = Homo sapiens, MDA-MB-436, 168 h

T1 sequence (O94782 whole entry): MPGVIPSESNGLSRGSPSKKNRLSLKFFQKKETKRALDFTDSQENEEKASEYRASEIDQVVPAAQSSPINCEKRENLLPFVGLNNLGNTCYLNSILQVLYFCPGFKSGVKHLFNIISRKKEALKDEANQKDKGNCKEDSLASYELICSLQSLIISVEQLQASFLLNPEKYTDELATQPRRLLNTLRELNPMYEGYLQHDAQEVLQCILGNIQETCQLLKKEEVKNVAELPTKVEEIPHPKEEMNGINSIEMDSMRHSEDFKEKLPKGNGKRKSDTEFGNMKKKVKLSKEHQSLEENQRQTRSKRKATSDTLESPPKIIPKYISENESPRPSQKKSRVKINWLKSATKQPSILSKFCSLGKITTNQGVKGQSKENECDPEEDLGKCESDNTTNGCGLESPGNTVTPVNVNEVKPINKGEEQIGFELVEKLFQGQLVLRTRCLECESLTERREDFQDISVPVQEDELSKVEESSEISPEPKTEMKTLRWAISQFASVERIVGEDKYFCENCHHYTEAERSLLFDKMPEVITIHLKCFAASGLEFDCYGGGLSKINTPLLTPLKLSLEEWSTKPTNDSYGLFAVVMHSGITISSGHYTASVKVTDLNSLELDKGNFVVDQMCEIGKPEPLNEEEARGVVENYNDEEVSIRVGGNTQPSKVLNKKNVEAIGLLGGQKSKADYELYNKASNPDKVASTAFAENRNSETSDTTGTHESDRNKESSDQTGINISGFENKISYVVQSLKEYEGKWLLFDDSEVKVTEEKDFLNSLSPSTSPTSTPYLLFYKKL
T1 sequence (Q8TAF3 whole entry partner): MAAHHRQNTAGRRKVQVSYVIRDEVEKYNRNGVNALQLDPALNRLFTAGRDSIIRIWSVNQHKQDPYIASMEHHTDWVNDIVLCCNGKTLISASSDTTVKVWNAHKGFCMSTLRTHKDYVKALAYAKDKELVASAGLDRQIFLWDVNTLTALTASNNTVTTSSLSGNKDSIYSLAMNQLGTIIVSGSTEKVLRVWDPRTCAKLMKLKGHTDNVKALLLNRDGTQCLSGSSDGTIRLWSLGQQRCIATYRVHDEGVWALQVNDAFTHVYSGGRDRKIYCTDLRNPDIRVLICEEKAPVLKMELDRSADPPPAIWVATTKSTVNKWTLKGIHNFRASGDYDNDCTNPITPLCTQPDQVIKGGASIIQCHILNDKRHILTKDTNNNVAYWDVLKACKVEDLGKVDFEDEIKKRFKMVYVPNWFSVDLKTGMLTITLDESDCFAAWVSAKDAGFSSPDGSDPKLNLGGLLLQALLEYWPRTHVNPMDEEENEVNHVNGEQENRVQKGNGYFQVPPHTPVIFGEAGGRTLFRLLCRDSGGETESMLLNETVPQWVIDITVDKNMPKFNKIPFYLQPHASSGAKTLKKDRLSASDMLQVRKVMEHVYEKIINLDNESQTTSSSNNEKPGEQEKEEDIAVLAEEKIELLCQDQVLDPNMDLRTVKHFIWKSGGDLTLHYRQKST

Row | Structure (SMILES) | IC50 [2] [nM] | also measured
1 | COc1ncnc(C2CC2)c1-c1ncc2c(n1)N(Cc1ccc(-c3nc(C(F)(F)F)cn3C)cc1)C(=O)CO2 [Example 18, 2-(4-Cyclopropyl-6-methoxypyrimidin-5-yl)-8-(4-(1-methyl-4-(trifluoromethyl)-1H-imidazol-2-yl)benzyl)-6H-pyrimido[5,4-b][1,4]oxazin-7(8H)-one] | – | IC50 [1, 3]: 313 nM
2 | COc1ncnc(C2CC2)c1-c1ncc2c(n1)N(Cc1ccc(-c3nc(C(F)(F)F)cn3C)cc1)CCO2 [Example 21, 2-(4-Cyclopropyl-6-methoxypyrimidin-5-yl)-8-(4-(1-methyl-4-(trifluoromethyl)-1H-imidazol-2-yl)benzyl)-7,8-dihydro-6H-pyrimido[5,4-b][1,4]oxazine] | – | IC50 [1, 3]: 1.8 nM
3 | COc1ncnc(C2CC2)c1-c1nc(NCc2ccc(-c3ccccn3)cc2)c2occc2n1 [Example 34, 2-(4-Cyclopropyl-6-methoxypyrimidin-5-yl)-N-(4-(pyridin-2-yl)benzyl)furo[3,2-d]pyrimidin-4-amine] | – | IC50 [1, 3]: 119 nM
4 | Cn1cc(C(F)(F)F)nc1-c1ccc(CNc2nc(-c3cccnc3C3CC3)ncc2OC(F)F)cc1 [Example 156, 2-(2-Cyclopropylpyridin-3-yl)-5-(difluoromethoxy)-N-(4-(1-methyl-4-(trifluoromethyl)-1H-imidazol-2-yl)benzyl)pyrimidin-4-amine] | – | IC50 [1, 3]: 59.5 nM
5 | COc1cnc(-c2c(OC)cnn2C2CC2)nc1NCC1CCN(c2nc(C(F)(F)F)cn2C)CC1 [Example 184, 2-(1-Cyclopropyl-4-methoxy-1H-pyrazol-5-yl)-5-methoxy-N-((1-(1-methyl-4-(trifluoromethyl)-1H-imidazol-2-yl)piperidin-4-yl)methyl)pyrimidin-4-amine] | 94 | –
6 | COc1cnc(-c2c(C)noc2C(C)C)nc1N(C)CC1CCN(c2ccccn2)CC1 [Example 186, 2-(5-Isopropyl-3-methylisoxazol-4-yl)-5-methoxy-N-methyl-N-((1-(pyridin-2-yl)piperidin-4-yl)methyl)pyrimidin-4-amine] | 66 | –
7 | COc1cnc(-c2c(C)noc2C(C)C)nc1NCC1CCN(c2nc(C(F)(F)F)cn2C)CC1 [Example 187, 2-(5-Isopropyl-3-methylisoxazol-4-yl)-5-methoxy-N-((1-(1-methyl-4-(trifluoromethyl)-1H-imidazol-2-yl)piperidin-4-yl)methyl)pyrimidin-4-amine] | 23.5 | –
8 | COc1cnc(-c2c(C)noc2C(C)C)nc1NCc1ccc(-c2nc(C(F)(F)F)cn2C)cc1 [Example 188, 2-(5-Isopropyl-3-methylisoxazol-4-yl)-5-methoxy-N-(4-(1-methyl-4-(trifluoromethyl)-1H-imidazol-2-vl)benzyl)pyrimidin-4-amine] | 15 | –
9 | COc1cnc(-c2cncnc2C2CC2)nc1N(C)Cc1ccc(-c2nc(C(F)(F)F)cn2C)cc1 [Example 193, 4'-Cyclopropyl-5-methoxy-N-methyl-N-(4-(1-methyl-4-(trifluoromethyl)-1H-imidazol-2-yl)benzyl)-[2,5'-bipyrimidin]-4-amine] | 87 | –
10 | COc1cnc(-c2cncnc2C2CC2)nc1NCc1ccc(-c2nc(C(F)F)cn2C)cc1 [Example 195, 4'-Cyclopropyl-N-(4-(4-(difluoromethyl)-1-methyl-1H-imidazol-2-yl)benzyl)-5-methoxy-[2,5'-bipyrimidin]-4-amine] | 243 | –
11 | Cn1cc(C(F)F)nc1-c1ccc(CNc2nc(-c3cncnc3C3CC3)nc3ccoc23)cc1 [Example 197, 2-(4-Cyclopropylpyrimidin-5-yl)-N-(4-(4-(difluoromethyl)-1-methyl-1H-imidazol-2-yl)benzyl)furo[3,2-d]pyrimidin-4-amine] | 133 | –
12 | COc1cnc(-c2c(C)cnn2C2CC2)nc1N(O)Cc1ccc(-c2nc(C(F)(F)F)cn2C)cc1 [Example 205, N-(2-(1-cyclopropyl-4-methyl-1H-pyrazol-5-yl)-5-methoxypyrimidin-4-yl)-N-(4-(1-methyl-4-(trifluoromethyl)-1H-imidazol-2-yl)benzyl)hydroxylamine] | 43 | –
13 | COc1cnc(-c2c(OC)ncnc2C2CC2)nc1N(C#N)Cc1ccc(-c2nc(C(F)(F)F)cn2C)cc1 [Example 206, N-(4'-cyclopropyl-5,6'-dimethoxy-[2,5'-bipyrimidin]-4-yl)-N-(4-(1-methyl-4-(trifluoromethyl)-1H-imidazol-2-yl)benzyl)cyanamide] | 3.5 | –
14 | COc1cnc(-c2c(Cl)cnn2C(C)C)nc1N(C)CC12CCC(c3nc(C(F)(F)F)cn3C)(CC1)OC2 [Example 211, 2-(4-chloro-1-isopropyl-1H-pyrazol-5-yl)-5-methoxy-N-methyl-N-((1-(1-methyl-4-(trifluoromethyl)-1H-imidazol-2-yl)-2-oxabicyclo [2.2.2]octan-4-yl)methyl)pyrimidin-4-amine] | 6.1 | –
15 | COc1cnc(-c2c(OC)ncnc2C2CC2)nc1N(C)CC12CCC(c3nc(C(F)(F)F)cn3C)(CC1)OC2 [Example 212, 4'-cyclopropyl-5,6'-dimethoxy-N-methyl-N-((1-(1-methyl-4-(trifluoromethyl)-1H-imidazol-2-yl)-2-oxabicyclo[2.2.2]octan-4-yl)methyl)-[2,5'-bipyrimidin]-4-amine] | 19 | –
16 | [2H]C([2H])([2H])Oc1ncnc(C2CC2)c1-c1ncc(OC)c(N(C)CC23CCC(c4nc(C(F)(F)F)cn4C)(CC2)CC3)n1 [Example S9, 4'-Cyclopropyl-5-methoxy-6'-(methoxy-D3)-N-methyl-N-((4-(1-methyl-4-(trifluoromethyl)-1H-imidazol-2-yl)bicyclo[2.2.2]oct-1-yl)methyl)-[2,5'-bipyrimidin]-4-amine] | 3.5 | –
17 | COc1cnc(-c2c(OC)ncnc2C2CC2)nc1N(C)CC12CCC(c3nc(C(F)(F)F)cn3C)(CC1)OC2 [Example S10, 4'-Cyclopropyl-5,6'-dimethoxy-N-methyl-N-((1-(1-methyl-4-(trifluoromethyl)-1H-imidazol-2-yl)-2-oxabicyclo[2.2.2]oct-4-yl)methyl)-[2,5'-bipyrimidin]-4-amine] | 19 | –
18 | COc1cnc(-c2c(Cl)cnn2C(C)C)nc1NCC12CCC(c3nc(C(F)(F)F)cn3C3CCC3)(CC1)OC2 [Example S11, 2-(4-Chloro-1-isopropyl-1H-pyrazol-5-yl)-N-((1-(1-cyclobutyl-4-(trifluoromethyl)-1H-imidazol-2-yl)-2-oxabicyclo[2.2.2]oct-4-yl)methyl)-5-methoxypyrimidin-4-amine] | 6.1 | –
19 | COc1cnc(-c2c(C)ncnc2OC2CC2)nc1NCC12CCC(c3nc(C(F)(F)F)cn3C)(CC1)CC2 [Example S19] | 300 | –
20 | COc1cnc(-c2c(OC)ncnc2C2CC2)nc1NCC1CCC(c2nc(C(F)(F)F)cn2C(C)C)CC1 [Example S25, 4'-Cyclopropyl-N-((1R,4R)-4-(1-isopropyl-4-(trifluoromethyl)-1H-imidazol-2-yl)cyclohexyl)methyl)-5,6'-dimethoxy-[2,5'-bipyrimidin]-4-amine] | – | IC50 [1]: 24.4 nM
21 | COc1cnc(-c2c(OC)ncnc2C2(F)CC2)nc1NCC1CCC(c2nc(C(F)(F)F)cn2C2CC2)CC1 [Example S38, N-(((1R,4R)-4-(1-cyclopropyl-4-(trifluoromethyl)-1H-imidazol-2-yl)cyclohexyl)methyl)-4'-(1-fluorocyclopropyl)-5,6'-dimethoxy-[2,5'-bipyrimidin]-4-amine] | 220 | –
